What was measured:
Type in all cases: physicochemical
[1] = Stability of pomalidomide Form A
Experimental: (§1) Hygroscopicity: Dynamic vapor sorption (DVS) analysis was carried out for two preparations of Form A using Surface Measurement Systems DVS. Representative DVS isotherm plots are presented in Figure 23 of WO2013/126326 and Figure 24 of WO2013/126326. In one study, the moisture uptake was less than about 0.14 % (wv'w) up to 95% relative humidity, indicative that pomalidomide Form A is not hygroscopic. […] At the end of desorption, the sample lost all of the weight it gained during the process of moisture sorption. […] The X-ray powder diffractograms are shown in Figure 25 and Figure 26 of WO2013/126326. […] The physical properties of the exposed form A were unchanged as compared to at the start of the study. Form A also appeared to be stable in acetone, acetonitrile, ethanol, ethyl acetate, methyl ethyl ketone, THF, toluene, ethanoi-water (1 : 1) or water at 40°C for at least 4 weeks. Compression Test: A compression test for Form A was carried out by applying 2000-psi pressure to the sample for 1 minute and then analyzing the sample by XRPD. […] Particle Size Distribution: In some embodiments, Form A was prepared as a white, irregular plate crystalline with a particle size D90 < 12 ? . Particle size distribution was determined for various lots of pomalidomide. Table 15: Particle Size Data for Pomalidomide Lots

[2] = Hygroscopicity of pomalidomide Form A (DVS)
Experimental: Pomalidomide Polymorph Preparations: A weighed sample of pomalidomide (about 100 mg) was treated with 2 mL of a test solvent. The solvents used were either reagent or HPLC grade. The resulting mixture was agitated for at least 24 hours at 25°C. When all of the solids were dissolved by visual inspection, the estimated solubilities were calculated. The solubility was estimated from these experiments based on the total volume of solvent used to give a solution. The actual solubility may be greater than those calculated due to the use of a large amount of solvent or to a slow rate of dissolution. […] A known volume of filtrate was evaporated to dryness and the weight of the residue was measured. Equilibration and evaporation experiments were carried out by adding an excess of pomalidomide to 4 mL of a test solvent. The resulting mixture was agitated for at least 24 hours at 25°C and 50°C separately. […] All of the samples generated as described in the polymorph preparation study were analyzed by XRPD. […] Diffracted radiation was detected by peitier-cooled Si(Li) solid state detector. […] Approximately 2-5 mg of sample was placed into a DSC pan and the weight was accurately recorded. […] Hygroscopicity was determined on a Surface Measurement Systems DVS. Typically a sample size of 10-50 mg was loaded into the DVS instrument sample pan and the sample was analyzed on a DVS automated sorption analyzer at 25°C. […]

[3] = Compression test of pomalidomide Form A; settings: 2000-psi pressure for 1 minute
Experimental: as §1

SMILES: Nc1cccc2c1C(=O)N(C1CCC(=O)NC1=O)C2=O (centres unmarked) [pomalidomide Form A, 4-amino-2-(2,6-dioxopiperidine-3-yl)isoindoline-1,3-dione]
- physical properties after exposure ([1]; 40°C/75% RH environment for four weeks): unchanged
- time stable in solvent ([1]; acetone, acetonitrile, ethanol, ethyl acetate, methyl ethyl ketone, THF, toluene, ethanol-water (1:1) or water at 40°C): at least 4 weeks
- mass change over the dry mass ([2]; relative humidity increased from 0 to 95%, another study): less than 0.11%
- moisture uptake ([2]; up to 95% relative humidity, one study): less than 0.14 % (wv'w)
- XRPD pattern after compression [3]: unchanged
